Test results from US7906620B2, “Tumor associated antigen, peptides thereof, and use of same as anti-tumor vaccines” (Yeda Research and Development Co. Ltd., priority 2002, dated 2011).

Tests used:
[1] = system: peptide loaded on labeled RMA-S/HHD; test: Immunogenicity of peptides in HHD mice: vaccination with peptide-loaded RMA-S/HHD/B7.1, cytolytic assay on peptide-loaded targets; type: in vivo; settings: for Score: immunogenic score: ratio of specific lysis, specific peptide vs tyrosinase peptide loaded on RMA-S/HHD, average of two experiments, positive above 125%; for antigenic / immunogenic in HHD mice: mouse, in vivo
Experimental: FIG. 4 is a graph of the results of in vitro cytolytic assays. Seven peptides are immunogenic. Peptides were loaded on RMA-S/HHD/B7.1, washed and irradiated. HHD mice were immunized three times as described in the materials and methods section in Example 1. In vitro cytolytic assays were performed on the relevant peptide as target and on an irrelevant peptide. The score was deduced from the ratio of the specific lysis that were obtained. The positive peptides (above 125%) are marked by arrows. Peptides 1-6, 3-5 and 3-7 are derived from “Human 1-8D gene”.
Vaccination. HHD mice were immunized i.p. 3 times at 7-day intervals with 2×10^6 irradiated (5000 rad) tumor cells, or irradiated peptide-loaded RMA-S/HHD/B7.1 transfectants. Spleens were removed on day 10 after the last immunization, and splenocytes were restimulated in vitro, either with irradiated tumor cells or with one third of the lymphocytes pre-pulsed with 100 μM synthetic peptides in opti-MEM (Life Technologies) for 2 hr at 37° C., 5% CO2. Restimulated lymphocytes were cultured in RPMI-HEPES medium containing 10% FCS, 2 mM glutamine, combined antibiotics, 1 mM sodium pyruvate, 25 mM HEPES, 5×10^−5M PME and 1% NEAA for 5 days. Viable cells (effectors) were separated by Lympholyte-M (Cedarlane, Hornby, Canada) gradient, resuspended and admixed at different ratios with 5,000 ^35S-methionine-labeled target cells. Cytolytic assays were carried out as described previously in Carmon et al., 2000. Extracts of tumor peptides or normal colon peptides were prepared from a pool of 6 post-surgical colon carcinoma specimens as described before Carmon et al., 2000.
The antigenic peptides were tested for their specific immunogenicity in HHD mice. HHD mice were vaccinated with RMA-S/HHD/B7.1 cells loaded with each of the peptides (listed in Table 3), their spleens were removed, and resensitized in vitro with synthetic peptides for four days. On the fifth day, a cytolytic assay was performed on two targets, either the peptide itself loaded on labeled RMA-S/HHD or the tyrosinase peptide as a negative control. The ratio of specific lysis between specific and tyrosinase peptides was defined as “immunogenic score”. This experiment was repeated twice and the average score of each of the antigenic peptides is specified (Table 3 and FIG. 4). The horizontal line in FIG. 4 represents the limit of 95% significance as defined by assuming normal distribution of scores.

T2 cells = test: In vitro priming of human CTL with prostate peptides, cytolytic assay on peptide pulsed T2 cells; type: cell-based; settings: three healthy and two CaP individuals
Experimental: FIGS. 16A-16D are graphs showing in vitro priming of human CTLs. PBMC of leukopheresis samples were isolated and in vitro CTL primed with peptide pulsed autologous DC. PBMC were supplemented with IL-7 and two days later IL-2 was added and renewed every three days. Additional two cycles of re-stimulation were done every 7 days over peptide pulsed monocytes. Seven days after the last stimulation cytolytic assay was performed using peptide pulsed or non-pulsed T2 cells as target. In FIG. 16A, PBMC derived from CaP individual (donor A) were primed and re-stimulated with STEAP-3 pulsed DC/monocytes. Target cells: relevant (STEAP-3) and non-relevant peptide (HIV-derived, PAP-3) pulsed T2 cells. In FIG. 16B, PBMC derived from healthy individual (donor B) were primed and restimulated with PAP-3 pulsed DC/monocytes. Target cells: relevant (PAP-3) and non-relevant peptide (HIV-derived, STEAP-3) pulsed T2 cells. PBMC derived from healthy individual (donor C) were primed and restimulated with either PAP-3 (C-1; FIG. 16C) or STEAP-3 (C-2; FIG. 16D) pulsed DC/monocytes. Relevant (PAP-3 or STEAP-3) peptide pulsed and non-pulsed T2 cells were used as targets.
FIGS. 17A-17C are graphs showing peptide specific CTL induced in human PBMC by PAP-3 (FIG. 17A), STEAP-3 (FIG. 17B), and PSGR-1 (FIG. 17C). PBMC from a healthy donor were stimulated by peptide pulsed DC as described and CTL activity was tested on homologous peptide pulsed T2 target cells (HLA-A2 lymphoma, TAP deficient).
Finally, peripheral blood of two healthy (donors B, C) and one CaP (donor A) individuals were tested for the existence of CTL precursors (FIGS. 16A-16D). Leukopheresis products of the donors were obtained from Barzilai Medical Center (Ashkelon, Israel) according to Declaration of Helsinki Principles. PBMC were isolated by centrifugation on Ficoll-Plaque Plus gradients (Amersham, Sweden). In vitro priming of CTL was done over autologous DC that were prepared from monocytes by IL-4 and GM-CSF treatment and maturated with a IL-1β, IL-6, TNF-α and PGE2 cocktail. DC were pulsed with synthetic peptides and PBMC were supplemented with IL-7. Two days later, IL-2 was added and renewed every three days. Two additional re-stimulations were done every 7 days over peptide pulsed monocytes. Seven days after the third stimulation, lymphocytes were harvested and a cytolytic assay was performed using relevant/non-relevant peptide pulsed or non-pulsed at all T2 cells.
(§1) When human PBMC are stimulated in vitro by PAP-3 and STEAP-3 peptides, the resulting CTL can lyse target cells (T2, EL4/HHD) pulsed with PAP-3, STEAP-3 or PSGR-1 and PSGR-6 peptides. (FIGS. 15 and 16). Here, these findings were expanded and peripheral blood of three healthy and two CaP individuals was tested for the existence of CTL precursors against PAP-3, STEAP-3 and PSGR-1 peptides. Leukopheresis products of the donors were obtained from Barzilai Medical Center (Ashkelon, Israel) according to Declaration of Helsinki Principles. PBMC were isolated by centrifugation on Ficoll-Plaque Plus gradients (Amersham, Sweden). In vitro priming of CTL was done over autologous DC that were prepared from monocytes by IL-4 and GM-CSF treatment and matured with a IL-1β, IL-6, TNF-α and PGE2 cocktail. DC were pulsed with synthetic peptides and PBMC were supplemented with IL-7. Two days later, IL-2 was added and renewed every three days. Two additional re-stimulations were done every 7 days over peptide pulsed monocytes. Seven days after the third stimulation, lymphocytes were harvested and a cytolytic assay was performed using relevant/non-relevant peptide pulsed or non-pulsed T2 cells (FIGS. 17A-17C) and LNCaP (high and low HLA expressors) cells as targets (FIGS. 18A-18E). […] Monitoring of HLA-A2-peptide specific CD8+ cells for PAP-3 and STEAP-3 was also performed by MHC-peptide tetramers (tetramers of recombinant HLA-A2.1-beta2 microglobulin single chain with peptides were prepared in collaboration with Dr Yoram Reiter, Technion, Haifa). […]

LNCaP = test: Lysis of LNCaP tumor cells by human anti-peptide CTL; type: cell-based; settings: LNCaP high and low HLA expressors as targets
Text: FIGS. 18A-18E are graphs showing that human anti-peptide CTL from a healthy donor kills LNCaP tumor cells. PBMC from a healthy donor (FIGS. 18A-18C) or a CaP patient (FIGS. 18D-18E) were stimulated with PAP-3 (FIGS. 18A, 18D), STEAP-3 (FIGS. 18B, 18E) or PSGR-1 (FIG. 18C) as described. LNCaP/CRL1740 (LNCaP high in HLA-A2.1 expression), LNCaP/CRL10995 (LNCaP low in HLA-A2.1 expression) and PC3 (negative for HLA-A2.1) served as targets in CTL assays.
as §1

Question: “ALGFYPAEI (listed as Homo sapiens) [Peptide 3-3]” was tested. Which Score [1] did it give?
Answer: 93.6

Question: “ALRGHSHFV (listed as Homo sapiens) [Peptide 1-8, Human MHC protein homologous to chicken B complex 58-66]” was tested. Which Score [1] did it give?
Answer: 106.7

Question: For “DLQETLVKI (listed as Homo sapiens) [Peptide 3-6, Human chaperonin like protein 316-324]”, which Score [1] is on record?
Answer: 84.6

Question: With “VLYDELKKV (listed as Homo sapiens) [Peptide 1-1, Human ADP/ATP translocase 253-261]” as the sequence, how does the Score [1] read?
Answer: 121.7

Question: With “IPMGKSMLV (listed as Homo sapiens) [Peptide 2-2, Insulin like growth factor II 3-11]” as the sequence, how does the Score [1] read?
Answer: 9.5

Question: For “IQQYGHQEV (listed as Homo sapiens) [Peptide 1-7]”, which Score [1] is on record?
Answer: 94.6

Question: “MLTINGKAI (listed as Homo sapiens) [Peptide 3-1, Transforming growth factor beta induced gene 343-351]” was tested. Which Score [1] did it give?
Answer: 147.1

Question: What about the “antigenic / immunogenic in HHD mice” value [1] of the same sequence?
Answer: antigenic and immunogenic

Question: How did the Score [1] turn out when “ALPDETEVV (listed as Homo sapiens) [Peptide 2-1, Human osteonectin 23-31]” was run?
Answer: 115.0

Question: Which Score [1] does the source give for “SIAEFFSDI (listed as Homo sapiens) [Peptide 3-2, Human TB2 gene 105-113]” here?
Answer: 143.2

Question: What about the “antigenic / immunogenic in HHD mice” value [1] of the same sequence?
Answer: antigenic and immunogenic

Question: Which Score [1] does the source give for “TILTAVLLV (listed as Homo sapiens) [Peptide 1-10, Human defensin 6 5-13]” here?
Answer: 97.5

Question: For “VIATNILLV (listed as Homo sapiens) [Peptide 1-9, Human chaperonin-like protein 368-346]”, which Score [1] is on record?
Answer: 69.7

Question: Which Score [1] does the source give for “IVDDITYNV (listed as Homo sapiens) [Peptide 1-11]” here?
Answer: 126.8

Question: And the “antigenic / immunogenic in HHD mice” value [1]?
Answer: antigenic and immunogenic

Question: With “WVVYGVFSI (listed as Homo sapiens) [Peptide 3-4, Human TB2 gene 98-106]” as the sequence, how does the Score [1] read?
Answer: 90.9

Question: Which Score [1] does the source give for “FELAAESDV (listed as Homo sapiens) [Peptide 1-4, Transforming growth factor beta induced gene 380-338]” here?
Answer: 83.3

Question: Which Score [1] does the source give for “TLQLSRAPV (listed as Homo sapiens) [Peptide 1-12, Human mRNA for dipeptidase 223-231]” here?
Answer: 107.9

Question: For “KIEDNNTLV (listed as Homo sapiens) [Peptide 2-3, Human ribosomal protein L23a mRNA 89-97]”, which Score [1] is on record?
Answer: 150.0

Question: What about the “antigenic / immunogenic in HHD mice” value [1] of the same sequence?
Answer: antigenic and immunogenic

Question: With “GQQSTVSDV (listed as Homo sapiens) [Peptide 1-5]” as the sequence, how does the Score [1] read?
Answer: 125.0

Question: Which results are given for “ILLVMGVDV (listed as Homo sapiens) [PSGR-1, PSGR start position 202]”?
Answer: activation of CTL precursors in PBMC derived from CaP patients and healthy donors (T2 cells): activated CTL precursors; lysis of tumor cells expressing endogenously processed proteins (LNCaP): lyse tumor cells

Question: With “LLVIIPVLV (listed as Homo sapiens) [Peptide 1-2, Human 1-8D gene from interferon inducible gene 119-127]” as the sequence, how does the Score [1] read?
Answer: 108.3

Question: With “VQPQSPVAV (listed as Homo sapiens) [Peptide 1-3]” as the sequence, how does the Score [1] read?
Answer: 112.0
